Laboratory results: US7888040B2, “Detection of methamphetamine group drugs” (priority 2004, dated 2011)

How the values were obtained:
[1] = system: monoclonal anti-methamphetamine antibody; experiment: Competitive inhibition ELISA (CELIA) on BSA-pseudoephedrine coated wells; format: binding, mouse; conditions: for Detection by the competitive ELISA (in words): summary of Table 1
Protocol: The conjugate was evaluated using ELISA. 96-well microtitre plates (Costar) were coated with BSA-pseudoephedrine (5 :g/ml in 0.05 M sodium carbonate/bicarbonate buffer, pH 9.6, 100 :l/well) overnight at room temperature. […] Two fold dilutions of monoclonal anti-methamphetamine antibody (East coast Biological, USA) in wash buffer containing 10 mg/ml BSA (assay buffer) were added to the wells (100 :l/well) and the plate incubated at room temperature for 30 minutes. The wells were washed 3 times with wash buffer and horseradish peroxidase-labelled goat anti-mouse IgG antibody (product number A-4416, Sigma Co., Poole, England) was added to the wells (1/2000 dilution in assay buffer, 100 :l/well) and incubation continued for a further 30 minutes. […] After 30 minutes incubation, colour development was stopped by the addition of 1 M sulphuric acid (100 :l/well). Colour intensity was measured at 450 nm.
Competitive ELISA was then set up to evaluate the cross-reactivity of various drugs with methamphetamine. […] The designer ecstasy drugs MDMA and MBDB were well detected by this assay.

[2] = system: gold-labelled mouse anti-methamphetamine antibody; experiment: Lateral flow immunochromatography test for methamphetamine/ecstasy in spiked oral fluid; conditions: for Lateral flow test result (in words): Table 2, at the concentrations tested; for Lateral flow test result: cut off set at ≧15 ng/ml (+)-methamphetamine
[3] = compound at 15 ng/ml in spiked saliva, Cozart Rapiscan reader
[4] = compound at 10,000 ng/ml, read off (+)-methamphetamine or ecstasy standard curve
[5] = compound at 10,000 ng/ml in spiked saliva

CCC(Cc1ccc2c(c1)OCO2)NC (racemic) [MBDB, (+/−)-N-methyl-1-(3,4-methylenedioxyphenyl)-2-butanamine]
% Cross-reactivity ([1]; compound at 25 ng/ml): 75.04% | Concentration determined by ELISA ([1]; compound at 25 ng/ml): 18.76 ng/mL | % Cross-reactivity ([1]; compound at 100 ng/ml): 66.43% | Concentration determined by ELISA ([1]; compound at 100 ng/ml): 66.43 ng/mL | % Cross-reactivity ([1]; compound at 500 ng/ml): 87.78% | Concentration determined by ELISA ([1]; compound at 500 ng/ml): 438.88 ng/mL | Detection by the competitive ELISA (in words) [1]: well detected | Lateral flow test result (in words) [2]: picked up | Lateral flow test result [2, 3]: positive

CC(N)Cc1ccccc1 (single isomer, unassigned; (+)) [(+)-amphetamine]
% Cross-reactivity ([1]; compound at 10,000 ng/ml): 0.379% | % Cross-reactivity ([1]; compound at 10,000 ng/ml, listed as amphetamine): < 0.4% | Concentration determined by ELISA [1, 4]: 37.97 ng/mL | Lateral flow test result [2, 5]: negative

CN[C@H](C)[C@@H](O)c1ccccc1 [(+)-ephedrine]
% Cross-reactivity ([1]; compound at 10,000 ng/ml): 0.08% | Concentration determined by ELISA [1, 4]: 8.37 ng/mL | Lateral flow test result [2, 5]: negative

CN[C@@H](C)[C@H](O)c1ccccc1 [(−)-ephedrine]
% Cross-reactivity ([1]; compound at 10,000 ng/ml): 0.05% | Concentration determined by ELISA [1, 4]: 5.05 ng/mL | Lateral flow test result [2, 5]: negative

CN(C)CCC(c1ccc(Cl)cc1)c1ccccn1 (stereo not drawn) [Chlorpheniramine]
Lateral flow test result [2, 5]: negative

CCNC(C)Cc1cccc(C(F)(F)F)c1 (stereo not drawn) [Fenfluramine]
Lateral flow test result [2, 5]: negative

CNC1(c2ccccc2Cl)CCCCC1=O (stereo not drawn) [Ketamine]
Lateral flow test result [2, 5]: negative

CC(N)Cc1ccc2c(c1)OCO2 (stereo not drawn) [MDA, 3,4-methylenedioxyamphetamine]
% Cross-reactivity ([1]; compound at 10,000 ng/ml): 0.219% | Concentration determined by ELISA [1, 4]: 21.94 ng/mL | Lateral flow test result [2, 5]: negative

CNC(C)Cc1ccc2c(c1)OCO2 (stereo not drawn) [MDMA (Ecstasy), 3,4-methylenedioxymethamphetamine]
% Cross-reactivity ([1]; compound at 15 ng/ml): 55.0% | Concentration determined by ELISA ([1]; compound at 15 ng/ml): 8.26 ng/mL | % Cross-reactivity ([1]; compound at 50 ng/ml): 48.1% | Concentration determined by ELISA ([1]; compound at 50 ng/ml): 24.09 ng/mL | % Cross-reactivity ([1]; compound at 100 ng/ml): 53.19% | Concentration determined by ELISA ([1]; compound at 100 ng/ml): 53.19 ng/mL | Detection by the competitive ELISA (in words) [1]: well detected | Lateral flow test result (in words) [2]: picked up | Lateral flow test result ([2]; compound at 30 ng/ml in spiked saliva): positive

CN(C)CCC(c1ccccc1)c1ccccn1 (stereo not drawn) [Pheniramine]
Lateral flow test result [2, 5]: negative

NCCc1ccccc1 [beta-phenylethylamine]
% Cross-reactivity ([1]; compound at 10,000 ng/ml): 0.25% | Concentration determined by ELISA [1, 4]: 25.6 ng/mL | Lateral flow test result [2, 5]: negative

CC(C)(N)Cc1ccccc1 [phentermine]
% Cross-reactivity ([1]; compound at 50,000 ng/ml): 0.009% | Concentration determined by ELISA ([1]; compound at 50,000 ng/ml): 4.67 ng/mL

CC(N)C(O)c1ccccc1 (stereo not drawn) [phenylpropanolamine]
% Cross-reactivity ([1]; compound at 10,000 ng/ml): 0.06% | Concentration determined by ELISA [1, 4]: 5.8 ng/mL | Lateral flow test result [2, 5]: negative

NCCc1ccc(O)cc1 [tyramine, 4-hydroxy-phenethylamine]
% Cross-reactivity ([1]; compound at 10,000 ng/ml): 0.03% | Concentration determined by ELISA [1, 4]: 3.72 ng/mL | Lateral flow test result [2, 5]: negative

(+)-methamphetamine [(+)- methylamphetamine]
Lateral flow test result (in words) [2]: picked up | Lateral flow test result [2, 3]: positive

(+)-pseudoephedrine
% Cross-reactivity ([1]; compound at 10,000 ng/ml): 0.063% | Concentration determined by ELISA [1, 4]: 6.3 ng/mL | Lateral flow test result [2, 5]: negative

(−)-pseudoephedrine
% Cross-reactivity ([1]; compound at 10,000 ng/ml): 0.048% | Concentration determined by ELISA [1, 4]: 4.84 ng/mL | Lateral flow test result [2, 5]: negative
